What was measured:
[1] = test system: RAW 267.4 cells; test: Osteoclast morphology and maturation (actin/DAPI immunofluorescence, TRAP staining); format: cell-based, mouse
Description: Treatment of RAW 267.4 cells with KBU2046 induces several structural and functional changes. It reduces RANKL-mediated formation of multinucleated cells, and those that do form have lower numbers of nuclei (see 40× panels, FIG. 4B). The characteristic prominent actin ring (white arrow) surrounding the resorptive cavity (yellow arrow) is readily apparent in control cells treated with RANKL ligand, but is lacking in KBU2046-treated cells (100×, panels). Consistent with it inhibiting maturation of RAW 267.4 cells, TRAP staining is decreased in KBU2046-treated cells (FIG. 4C).
FIG. 4 represents the KBU2046 inhibition of osteoclast function. FIG. 4A compares effects on Raf1 activation. RAW 267.4 cells were treated with RANKL for 4 days, treated with 10 μM KBU2046 for the indicated time periods, and Western blot for the denoted proteins performed. (B) Effects on cell morphology. RAW 267.4 cells were treated with RANKL and with KBU2046 for 4 days, or not, and denoted, and stained for actin (green) and DAPI (blue); white arrow denotes an actin ring, yellow arrow a resorptive cavity. Representative immunofluorescent images are depicted. (C) Tartrate resistant acid phosphatase (TRAP) expression. Cells were treated as in B, stained for TRAP (denoted by presence of red), and representative images from light microscopy depicted. (D) Bone degradation. RAW 267.4 cells were plated onto Osteo Assay plates, treated with RANKL for 6 days and with KBU2046 (or vehicle for controls) as indicated and bone surface area quantified. Data are the mean±SEM (N=3 replicates) of bone surface area, expressed as the percentage of control cells; * denotes P<0.05 compared to control.
Raw 264.7 cells were grown in differentiation medium (described below), with or without KBU2046, for 4 days on a Chamber Slide (Nunc Lab-Tek). Chambers were washed once with PBS, followed by 10-minute fixation in cold 10% neutral-buffered formalin (VWR) and a post-fixation wash with PBS. […] The cells were then incubated for 2 hours at 4° C. in Dylight Phallodin (Cell Signaling technology, #12935) antibody diluted 1:40 in 1×PBS with 1% BSA and 0.3% Triton X-100. Subsequently, the slide was washed once with PBS, a coverslip mounted with ProLong Gold Antifade Reagent with DAPI (Cell Signaling Technology, #8961), and imaged on a Confocal Microscope (Nikon/Yokogawa Spinning Disc).

[2] = test system: Raf1; test: Western blot of Raf1 phosphorylation in RANKL treated osteoclast cells; format: cell-based, mouse; details: 10 μM KBU2046, RANKL treated RAW 267.4 cells, time-dependent
Description: To examine this paradigm we first evaluated whether KBU2046 would inhibit Raf1 phosphorylation in osteoclasts. After treatment with RANKL, RAW 267.4 cells differentiate into mature osteoclasts. Upon maturation osteoclast become multinucleated, express tartrate resistant acid phosphatase (TRAP), and have the capacity to form actin rings that create an occluded cavity in which bone is degraded. KBU2046 inhibits phosphorylation of Raf1's activation motif in RANKL treated RAW 267.4 osteoclast cells, and does so in a time-dependent manner (FIG. 4A). In osteoclasts Raf1 is known to phosphorylate MEK1/2, in turn phosphorylating ERK1/2 (Bradley et al., J Cell Biochem 104, 1439-1451 (2008)), with the latter acting to stimulate osteoclast differentiation and bone resorptive activity (He et al., PLoS One 6, e24780 (2011); and Nakamura et al., J Bone Miner Res 18, 1198-1205 (2003)).
FIG. 4 represents the KBU2046 inhibition of osteoclast function. FIG. 4A compares effects on Raf1 activation. […] RAW 267.4 cells were plated onto Osteo Assay plates, treated with RANKL for 6 days and with KBU2046 (or vehicle for controls) as indicated and bone surface area quantified. Data are the mean±SEM (N=3 replicates) of bone surface area, expressed as the percentage of control cells; * denotes P<0.05 compared to control. […]

O=C1c2ccccc2OCC1c1ccc(F)cc1 (centres unmarked) [KBU2046, 3-(4-fluorophenyl)chroman-4-one]
RANKL-mediated formation of multinucleated cells ([1]; RANKL and KBU2046 for 4 days): reduces
TRAP staining ([1]; RANKL and KBU2046 for 4 days): decreased
actin ring surrounding the resorptive cavity ([1]; RANKL and KBU2046 for 4 days): lacking
cellular extensions of undifferentiated cells ([1]; absence of RANKL): markedly reduces
phosphorylation of Raf1's activation motif [2]: inhibits

Reference: patent US20220133894A1, “BISPHOSPHONATE-LINKED COMPOUNDS” (OREGON HEALTH & SCIENCE UNIVERSITY, priority 2019, published 2022)
